Results: patent US20120277296A1, “Selective CB2 Receptor Agonists for Use in the Prevention or Treatment of Alcoholic Liver Disease” (priority 2009, published 2012)
Entries after “also recorded” stand apart in the source; their conditions may differ.

How the values were obtained:
TNF-α mRNA expression = experiment: Chronic ethanol feeding model: hepatic inflammation, TNF-α mRNA expression by RT-PCR; assay type: in vivo, mouse; details: WT mice fed EtOH, JWH-133 3 mg/kg daily intraperitoneal during 10 day ethanol feeding, vs. vehicle
Protocol: Animals. Female mice (8-10 week old) were used for the experiments and included wild type (WT) C57B1/6J mice (Janvier, France) and mice with a targeted mutation of the Cnr2 gene (Buckley et al. 2000). Homozygous Cnr2−/− animals were obtained from heterozygous Cnr2+/− mice that were backcrossed with WT C57Bl/6J animals over 10 generations, and further intercrossed to obtain homozygous animals. Genotyping was performed on tail genomic DNA using QuantiTect™ SYBR® Green PCR kit (Qiagen). Animals were housed in temperature and humidity controlled rooms, kept on a 12-h light/dark cycle and provided unrestricted amounts of food and water. […]
(§1) Chronic exposure to ethanol. […] Body weight and food intake were measured daily.
(§2) The impact of the CB2 agonist JWH-133 or its vehicle was evaluated in WT mice that were treated with a daily intraperitoneal injection of JWH-133 (3 mg/kg) or its vehicle during the 10 day feeding with ethanol. […] Body weight and food intake were measured daily. […]
RNA preparation and RT-PCR. […] Quantitative real time-PCR was carried out on a Light Cycler (Roche Diagnostics), as previously described (Julien et al. 2005). Oligonucleotide primers (MWG Biotech) for the following mouse genes were used: mouse Rn18S; mouse Tnf, PCR amplified products were analyzed on a 2% agarose gel and sequenced.

[1] = test system: WT mice fed EtOH (EtOH-induced hepatic steatosis); experiment: Chronic ethanol feeding model (modified Lieber-De Carli diet, 10 days): hepatic steatosis; assay type: in vivo, mouse; details: JWH-133 3 mg/kg daily intraperitoneal during 10 day ethanol feeding, vs. vehicle
Protocol: Animals. Female mice (8-10 week old) were used for the experiments and included wild type (WT) C57B1/6J mice (Janvier, France) and mice with a targeted mutation of the Cnr2 gene (Buckley et al. 2000). Homozygous Cnr2−/− animals were obtained from heterozygous Cnr2+/− mice that were backcrossed with WT C57Bl/6J animals over 10 generations, and further intercrossed to obtain homozygous animals. Genotyping was performed on tail genomic DNA using QuantiTect™ SYBR® Green PCR kit (Qiagen). Animals were housed in temperature and humidity controlled rooms, kept on a 12-h light/dark cycle and provided unrestricted amounts of food and water. Animal procedures were conducted in accordance with French government policies (Services Vétérinaires de la Santé et de la Production Animale, Ministère de l'Agriculture).
as §1, §2
Hepatic triglyceride quantification. […] Triglycerides were quantified with a triglyceride determination kit (Sigma), on liver samples from 10-15 animals per group.

CCCC(C)(C)c1ccc2c(c1)OC(C)(C)[C@@H]1CC=C(C)C[C@@H]21 [JWH-133, (6aR,10aR)-3-(1,1-dimethylbutyl)-6a,7,10,10a-tetrahydro-6,6,9-trimethyl-6Hdibenzo[b,d]pyran]
TNF-α mRNA expression in liver (TNF-α mRNA expression): prevents the increase; also recorded: reduced TNF-α mRNA levels to control levels
hepatic triglyceride content [1]: decrease; also recorded: strongly reduced
liver/body weight ratio [1]: decrease; also recorded: strongly reduced
